Results published in publication PMC8086754 (Journal of medicinal chemistry, 2020).

Tests used:
human i-20S β5i [1] = biological target: T1, human i-20S β5i (Homo sapiens, UniProt P28062); assay: IC50 determination against human i-20S β5i; assay type: biochemical; details: for inhibitory activity against β5i (SAR statement in words): relative to the parent compound of the sentence; for reduction in β5i activity: relative to PKS2086
human c-20S β5c = human c-20S β5c (Homo sapiens, UniProt P28074); assay: IC50 determination against human c-20S β5c; assay type: biochemical; details: relative to the parent compound of the sentence
human i-20S β5i [2] = biological target: T1, human i-20S β5i; details: previously reported; cited from earlier work
α-chymotrypsin = α-chymotrypsin (Bos taurus, UniProt P00766); assay: Protease counter-screen, α-chymotrypsin; assay type: biochemical; details: compounds at 100, 33.3 and 11.1 μM
cathepsin L = cathepsin L (Homo sapiens, UniProt P07711); assay: Protease counter-screen, cathepsin L; assay type: biochemical; details: compounds at 100, 33.3 and 11.1 μM
[3] = tested on: T cell proliferation in PBMCs; assay: Human PBMC proliferation assay; assay type: cell-based

cathepsin L, sequence (P07711 114-333, species assumed): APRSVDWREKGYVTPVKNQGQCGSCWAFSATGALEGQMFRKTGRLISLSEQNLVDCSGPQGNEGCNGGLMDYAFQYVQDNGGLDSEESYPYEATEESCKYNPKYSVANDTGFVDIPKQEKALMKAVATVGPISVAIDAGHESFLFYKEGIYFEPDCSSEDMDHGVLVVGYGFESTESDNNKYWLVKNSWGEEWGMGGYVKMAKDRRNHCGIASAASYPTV

C[C@H](NC(=O)[C@H](CCC(=O)NC(C)(C)C)NC(=O)CCc1ccccc1)C(=O)NCc1ccc(F)c2ccccc12 [PKS21210]
inhibitory activity against β5i (SAR statement in words) (human i-20S β5i [1]): equipotent

COC[C@H](NC(=O)CCc1ccccc1)C(=O)N[C@@H](C)C(=O)NCc1cccc2ccccc12 [PKS2048]
inhibitory activity against β5i (SAR statement in words) (human i-20S β5i [1]): abolished the inhibitory activities | inhibitory activity against β5c (SAR statement in words) (human c-20S β5c): abolished the inhibitory activities

COC[C@H](NC(=O)[C@H](CC(=O)N(C)C)NC(=O)CCc1ccccc1)C(=O)NCc1cccc2ccccc12 [Compound 2230BP]
inhibitory activity against β5c (SAR statement in words) (human c-20S β5c): significant loss of affinity

NC(=O)C[C@H](NC(=O)CCc1ccccc1)C(=O)N[C@@H](Cc1ccc(F)cc1)C(=O)NCc1cccc2ccccc12 [PKS21083]
inhibitory activity against β5c (SAR statement in words) (human c-20S β5c): abolished the inhibitory activities

CC(C)(C)ONC(=O)C[C@H](NC(=O)CCc1ccccc1)C(=O)N[C@@H](Cc1ccc(F)cc1)C(=O)NCc1cccc2ccccc12 [DPLG3]
β5i inhibitory potency (human i-20S β5i [2]): single-digit nanomolar potency

COC[C@H](NC(=O)[C@H](CC(=O)NOC(C)(C)C)NC(=O)CCc1ccccc1)C(=O)NCc1cccc2cccnc12 [PKS2220]
reduction in β5i activity (human i-20S β5i [1]): 19 fold

COC[C@H](NC(=O)[C@H](CC(=O)NOC(C)(C)C)NC(=O)CCc1ccccc1)C(=O)NCc1cccc(OC)c1 [PKS2160]
selectivity for β5i over β5c (statement in words) (human i-20S β5i [1]): abolished selectivity

C[C@H](NC(=O)[C@H](CC(=O)NOC(C)(C)C)NC(=O)CCc1ccccc1)C(=O)NCc1ccnc2ccccc12 [PKS2068]
inhibitory activity against β5i (SAR statement in words) (human i-20S β5i [1]): eliminated inhibitory activity | inhibitory activity against β5c (SAR statement in words) (human c-20S β5c): eliminated inhibitory activity

C[C@H](NC(=O)[C@H](CC(=O)NOC(C)(C)C)NC(=O)CCc1ccccc1)C(=O)NCc1cccc2[nH]ccc12 [PKS2083]
inhibitory activity against β5i (SAR statement in words) (human i-20S β5i [1]): decreased potency against β5i | inhibitory activity against β5c (SAR statement in words) (human c-20S β5c): increased activity against β5c

COC[C@H](NC(=O)[C@H](CC(=O)N1CCC1)NC(=O)CCc1ccccc1)C(=O)NCc1cccc2ccccc12 [PKS2209]
inhibitory activity against β5c (SAR statement in words) (human c-20S β5c): significant loss of affinity

C[C@H](NC(=O)[C@H](CC(=O)NC(C)(C)C)NC(=O)C(=O)c1c[nH]c2ccccc12)C(=O)NCc1cccc2ccccc12 [PKS3053]
inhibition of α-chymotrypsin (α-chymotrypsin): weak inhibition | inhibition of cathepsin L (cathepsin L): weak inhibition | activity against T cells relative to comparator ([3]; compared to PKS21210): two times more active | activity against T cells relative to comparator ([3]; compared to PKS21272): > 3 times

COC[C@H](NC(=O)[C@H](CC(=O)NOC(C)(C)C)NC(=O)CCc1ccccc1)C(=O)NCc1cccc(OC)c1OC [PKS2211]
selectivity for β5i over β5c (statement in words) (human i-20S β5i [1]): abolished selectivity

COC[C@H](NC(=O)[C@H](CC(=O)NOC(C)(C)C)NC(=O)CCc1ccccc1)C(=O)NCc1cccc2c1NCCC2 [PKS2226]
reduction in β5i activity (human i-20S β5i [1]): 114 fold

C[C@H](NC(=O)[C@H](CC(=O)NOC(C)(C)C)NC(=O)CCc1ccccc1)C(=O)NCc1cccc2ncccc12 [PKS2073]
inhibitory activity against β5i (SAR statement in words) (human i-20S β5i [1]): eliminated inhibitory activity | inhibitory activity against β5c (SAR statement in words) (human c-20S β5c): eliminated inhibitory activity

COC[C@H](NC(=O)[C@H](CCC(=O)NC(C)(C)C)NS(=O)(=O)c1ccc(C)cc1)C(=O)NCc1ccc(F)c2ccccc12 [PKS21265]
greater potency against T cells ([3]; compared to PKS21209): 2 fold | greater potency against T cells ([3]; compared to PKS21266): 5 fold
